Test results published in patent EP1816121B1, “9-Chloro-15-deoxyprostaglandin derivatives, process for their preparation and their use as medicaments” (Bayer Schering Pharma Aktiengesellschaft, priority 2005, dated 2007).

Key:
[1] = tested on: Human monocyte derived dendritic cells; experiment: Human monocyte derived dendritic cell cytokine release, IL-10; type: cell-based; settings: 18 h
From the text: (§1) Following stimulation through the toll-like receptors (TLR) DCs express and release proinflammatory cytokines and chemokines and may induce activation and proliferation of naïve T cells. The binding of an EP2 agonist to the DC EP receptor inhibits TLR4 ligand (LPS) stimulated Interleukin 12 (IL-12) release. […] Therefore an EP2 agonist skews the CD4 T cell differentiation away from the Th- lineage.
IL-10 initially designated cytokine synthesis inhibitory factor (CSIF), was originally identified as a product of Th-2 clones that suppressed the production of cytokines by Th-1 clones responding to stimulation by antigen in the presence of antigen-presenting cells. IL-10 is a dimer composed of two identical 160 amino acid subunits. Enzyme linked immuno sorbant assays (ELISA) based on antibodies specific to IL-10 are commercially available. Standards and samples are pipetted into the wells of a microplate. An antibody specific to human IL-10 is added to the wells. A substrate is added to the wells and color develops in proportion to the amount of IL-10 bound. The intensity of the color is measured.
(§2) Human monocyte derived dendritic cells are isolated from human donors using a Ficoll density gradient and residual erythrocytes removed by selective lysis. CD14 MicroBeads are used for separation of human cells based on the expression of the CD14 antigen. The dendritic cells are cultured at approximately 1.5 x 10^6 cells per ml in RPMI 1640 with fetal bovine serum, 200 ng/ml GM-CSF (Leukine) and 10 ng/ml IL-4. The cells grow-for a period of 3 days and then the media is changed. 10ng/ml LPS is used to activate the cells. 1µM of substance (EP2 agonist) and 1µM of PGE2 are added during the LPS stimulation. Cells are incubated for approximately 18 hr at 37C. IL-12 and II-10 released during activation is measured by ELISA.

[2] = tested on: Human monocyte derived dendritic cells; experiment: Inhibition of human monocyte derived dendritic cell cytokine release, IL-12; type: cell-based; settings: 18 h
From the text: as §1
IL-12 is a 75 kDa glycoprotein heterodimer (p70) composed of two genetically unrelated subunits linked by a disulfide bond. Enzyme linked immuno sorbant assays (ELISA) based on antibodies specific to IL-12 p70 are commercially available. Standards and samples are pipetted into the wells of a microplate. An antibody specific to human IL-12 is added to the wells. A substrate is added to the wells and color develops in proportion to the amount of IL-12 bound. The intensity of the color is measured.
as §2

[3] = Donor 1, read-out: % inhibition below untreated, LPS- stimulated control
[4] = Donor 2, read-out: % inhibition below untreated, LPS- stimulated control
[5] = Donor 3, read-out: % inhibition below untreated, LPS- stimulated control

Structure (SMILES): CCCCC[C@H](O)/C=C/[C@H]1[C@H](O)CC(=O)[C@@H]1C/C=C\CCCC(=O)O [PGE2, prostaglandin E2]
- inhibition at 1 µM [1, 3]: 103%
- inhibition at 1 µM [1, 4]: 134%
- inhibition at 1 µM [1, 5]: 107%
- inhibition at 1 µM [2, 3]: 78%
- inhibition at 1 µM [2, 4]: 44%
- inhibition at 1 µM [2, 5]: 84%
- inhibition at 1 µM ([2]; Donor 4, read-out: % inhibition below untreated, LPS- stimulated control): 29%
